Measurements taken from patent US20160145244A1, “CERTAIN PROTEIN KINASE INHIBITORS” (FOCHON PHARMA, INC., priority 2014, published 2016).

What was measured:
NCI-H3122 cells = assay: Cell proliferation assay, NCI-H3122 cells (SRB); assay type: cell-based; conditions: Homo sapiens, 72 h exposure
Description: (§1) NCI-H3122 or SUP-M2 Cells were plated into 96-well plates (3000-8000/well) in complete medium. After incubation overnight, cells were exposed to various concentrations of compound for further 72 h. Cell proliferation was evaluated by SRB assay (for NCI-H3122 cell) or Cell Counting Kit-8 assay (CCK-8, DOJINDO Molecular Technologies, Inc.) (for SUP-M2 cell). ICso values were calculated by concentration-response curve fitting using a SoftMax pro-based four-parameter method. Each IC50 value was expressed as mean±SD from three separate experiments.

SUP-M2 cells = assay: Cell proliferation assay, SUP-M2 cells (CCK-8); assay type: cell-based; conditions: 72 h exposure, Cell Counting Kit-8 assay
Description: as §1

Compound | IC50 (NCI-H3122 cells) [nM] | IC50 (SUP-M2 cells) [nM]
Cc1cc(Nc2ncnc(Nc3ccccc3S(=O)(=O)C(C)C)n2)c2c(c1C1CCNCC1)C[C@@H](C)O2 [Example 1, (R)—N^2-(2,5-dimethyl-4-(piperidin-4-yl)-2,3-dihydrobenzofuran-7-yl)-N^4-(2-(isopropylsulfonyl)phenyl)-1,3,5-triazine-2,4-diamine] | 52.6 | 99.3
Cc1cc(Nc2ncnc(Nc3ccccc3S(=O)(=O)C(C)C)n2)c2c(c1C1CCN(C)CC1)C[C@@H](C)O2 [Example 2, (R)—N^2-(2,5-dimethyl-4-(1-methylpiperidin-4-yl)-2,3-dihydrobenzofuran-7-yl)-N^4-(2-(isopropyl-sulfonyl)phenyl)-1,3,5-triazine-2,4-diamine] | 20.8 | 54.4
CC(=O)N1CCC(c2c(C)cc(Nc3ncnc(Nc4ccccc4S(=O)(=O)C(C)C)n3)c3c2C[C@@H](C)O3)CC1 [Example 3, (R)-1-(4-(7-((4-((2-(isopropylsulfonyl)phenyl)amino)-1,3,5-triazin-2-yl)amino)-2,5-dimethyl-2,3-dihydrobenzofuran-4-yl)piperidin-1-yl)ethan-1-one] | 14.4 | 50.4
Cc1cc(Nc2ncnc(Nc3ccccc3S(=O)(=O)C(C)C)n2)c2c(c1C1CCN(S(C)(=O)=O)CC1)C[C@@H](C)O2 [Example 4, (R)—N^2-(2,5-dimethyl-4-(1-(methylsulfonyl)piperidin-4-yl)-2,3-dihydrobenzofuran-7-yl)-N^4-(2-(isopropylsulfonyl)phenyl)-1,3,5-triazine-2,4-diamine] | – | 111 to 333
CCOC(=O)CN1CCC(c2c(C)cc(Nc3ncnc(Nc4ccccc4S(=O)(=O)C(C)C)n3)c3c2C[C@@H](C)O3)CC1 [Example 6, Ethyl (R)-2-(4-(7-((4-((2-(isopropylsulfonyl)phenyl)amino)-1,3,5-triazin-2-yl)amino)-2,5-dimethyl-2,3-dihydrobenzofuran-4-yl)piperidin-1-yl)acetate] | – | 111 to 333
Cc1cc(Nc2ncnc(Nc3ccccc3S(=O)(=O)C(C)C)n2)c2c(c1C1CCN(CC(=O)N(C)C)CC1)C[C@@H](C)O2 [Example 7, (R)-2-(4-(7-((4-((2-(isopropylsulfonyl)phenyl)amino)-1,3,5-triazin-2-yl)amino)-2,5-dimethyl-2,3-dihydrobenzofuran-4-yl)piperidin-1-yl)-N,N-dimethylacetamide] | – | 111 to 333
Cc1cc(Nc2ncnc(Nc3ccccc3S(=O)(=O)C(C)C)n2)c2c(c1C1CCN(CCS(C)(=O)=O)CC1)C[C@@H](C)O2 [Example 8, (R)—N^2-(2,5-dimethyl-4-(1-(2-(methylsulfonyl)ethyl)piperidin-4-yl)-2,3-dihydrobenzofuran-7-yl)-N^4-(2-(isopropylsulfonyl)phenyl)-1,3,5-triazine-2,4-diamine] | – | 111 to 333

Further lines, with some results ahead:

IC50 (NCI-H3122 cells) [nM] | Compound | IC50 (SUP-M2 cells) [nM]
57.7 | Cc1cc(Nc2ncnc(Nc3ccccc3S(=O)(=O)C(C)C)n2)c2c(c1C1CCN(CCO)CC1)C[C@@H](C)O2 [Example 5, (R)-2-(4-(7-((4-((2-(isopropylsulfonyl)phenyl)amino)-1,3,5-triazin-2-yl)amino)-2,5-dimethyl-2,3-dihydrobenzofuran-4-yl)piperidin-1-yl)ethan-1-ol] | 70
15.9 | Cc1cc(Nc2ncnc(Nc3ccccc3S(=O)(=O)C(C)C)n2)c2c(c1C1CCN(C(=O)CO)CC1)C[C@@H](C)O2 [Example 9, (R)-2-hydroxy-1-(4-(7-((4-((2-(isopropylsulfonyl)phenyl)amino)-1,3,5-triazin-2-yl)amino)-2,5-dimethyl-2,3-dihydrobenzofuran-4-yl)piperidin-1-yl)ethan-1-one] | 33.7
134 | Cc1cc(Nc2ncnc(Nc3ccccc3S(=O)(=O)C(C)C)n2)c2c(c1C1CCN(C(=O)CN)CC1)C[C@@H](C)O2 [Example 10, (R)-2-amino-1-(4-(7-((4-((2-(isopropylsulfonyl)phenyl)amino)-1,3,5-triazin-2-yl)amino)-2,5-dimethyl-2,3-dihydrobenzofuran-4-yl)piperidin-1-yl)ethan-1-one] | 79.6
25.7 | Cc1cc(Nc2ncnc(Nc3ccccc3S(=O)(=O)C(C)C)n2)c2c(c1C1CCN(C(=O)[C@H](C)N)CC1)C[C@@H](C)O2 [Example 11, (S)-2-amino-1-(4-((R)-7-((4-((2-(isopropylsulfonyl)phenyl)amino)-1,3,5-triazin-2-yl)amino)-2,5-dimethyl-2,3-dihydrobenzofuran-4-yl)piperidin-1-yl)propan-1-one] | 67.1
